Measurements as given in patent US12064508B2, “Compositions and methods for nasal administration of drugs to brain and for systemic effect” (priority 2017, dated 2024).

System: nasal cavity
Experiment: Local safety: histopathology of the nasal cavity
Details: intranasal 15 μl/rat twice a day for one week
Procedure: The effect of phospholipid magnesome on the nasal cavity was evaluated in rats.
The animals received the treatments twice a day for one week. […] Sections of the nasal cavity were cut serially at 7 μm thickness and stained with Hematoxylin & Eosin. […] Local toxicity was assessed by evaluating the histopathological alterations in different regions of the nasal cavity (cartilage and turbinate bone, lamina propria and submucosa, mucosal epithelium and lumen).

With CCCCCCCCCCCCOS(=O)(=O)[O-].[Na+] [SLS, Sodium lauryl sulfate] the “histopathological findings in the nasal cavity” value was “minimal proteinaceous material in the lumen and focal aggregations of neutrophils”.
